Patent US10457710B2, “Antimicrobial peptides, their variants and uses” (priority 2015, dated 2019)
Where a SMILES comes first, the peptide text is derived from it. [ ]: non-standard residue; d: D form.

Columns and labels:
Format in all cases: cell-based
C. quillermondiae = assay: MIC, clinical yeast strains; details: clinical yeast strain 1; D-form peptide; concentrations tested 0.125 to 128 μg/ml
Method in brief: (§1)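 Broth microdilution in Potato dextrose broth, inoculum 5.0×10^5 cfu/ml, peptide 0.125–128 μg/ml, incubated at 37 °C for 20–24 h; MIC taken as lowest concentration without visible growth. A. johnsonii clinical strains were tested the same way in Mueller Hinton broth.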

C. parapsilosis = assay: MIC, clinical yeast strains; details: D-form peptide, concentrations tested 0.125 to 128 μg/ml
Method in brief: as §1

C. glabrata = assay: MIC, clinical yeast strains; details: D-form peptide, concentrations tested 0.125 to 128 μg/ml
Method in brief: as §1

Candida albicans = assay: MIC, clinical yeast strains; details: D-form peptide, concentrations tested 0.125 to 128 μg/ml
Method in brief: as §1

[1] = tested on: clinical strains of A. johnsonii; assay: MIC, microdilution, clinical strains; design: unit: μg/ml; details: Acinetobacter johnsonii strain 1, Muller Hinton broth-cation adjusted, 0.02% BSA, 0.2% acetic acid
Method in brief: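 MIC = lowest peptide concentration without visual growth after 20–24 h at 37° C. Range 0.125–128 μg/ml, inoculum 5.0×10^5 cfu/ml, microdilution format. Antifungal tests used potato dextrose broth; bacterial tests used MH broth.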

[2] = tested on: clinical strains of Acinetobacter baumannii; assay: MIC, microdilution, clinical strains; design: unit: μg/ml; details: 0.02% BSA, 0.2% acetic acid
Method in brief: (§2)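 Broth microdilution with inocula adjusted to 5.0×10^5 cfu/ml; peptides tested at 0.125 to 128 μg/ml and incubated at 37° C for 20 to 24 hours. Bacteria were grown in Mueller Hinton broth, yeasts in potato dextrose broth. MIC was the lowest concentration showing no visible growth.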

[3] = tested on: clinical strains of Proteus mirabilis; assay: MIC, microdilution, clinical strains; details: 0.02% BSA, 0.2% acetic acid
Method in brief: as §2

[4] = tested on: clinical strains of P. aeruginosa; assay: MIC, microdilution, clinical strains; details: 0.02% BSA, 0.2% acetic acid
Method in brief: as §2

[5] = tested on: clinical strains of E. cloacae; assay: MIC, microdilution, clinical strains; details: 0.02% BSA, 0.2% acetic acid
Method in brief: as §2

[6] = tested on: clinical strains of Serratia marcescens; assay: MIC, microdilution, clinical strains; details: 0.02% BSA, 0.2% acetic acid
Method in brief: as §2

[7] = tested on: clinical strains of K. pneumoniae; assay: MIC, microdilution, clinical strains; details: 0.02% BSA, 0.2% acetic acid
Method in brief: as §2

[8] = tested on: clinical strains of S. pneumoniae; assay: MIC, microdilution, clinical strains; details: 0.02% BSA, 0.2% acetic acid
Method in brief: as §2

[9] = tested on: clinical strains of S. aureus; assay: MIC, microdilution, clinical strains; details: 0.02% BSA, 0.2% acetic acid
Method in brief: as §2

[10] = tested on: clinical strains of E. coli; assay: MIC, microdilution, clinical strains; details: microdilution, Muller Hinton broth-cation adjusted, 0.02% BSA, 0.2% acetic acid
Method in brief: as §2

In the case of `CC[C@@H](C)[C@@H](NC(=O)[C@@H](CCSC)NC(=O)[C@@H](C)NC(=O)[C@@H](CCCNC(=N)N)NC(=O)[C@@H](Cc1c[nH]c2ccccc12)NC(=O)[C@@H](CCCCN)NC(=O)[C@H](N)CCCNC(=N)N)C(=O)N[C@H](CCCNC(=N)N)C(=O)N[C@H](CC(C)C)C(=O)N[C@H](Cc1c[nH]cn1)C(=O)N[C@H](C)C(=O)N[C@H](CCCCN)C(=O)N[C@H](CCCNC(=N)N)C(=O)N[C@H](CC(C)C)C(=O)N[C@H](CCCNC(=N)N)C(=O)N[C@H](CCCCN)C(=O)O` [Chain104D] (H-[dR][dK][dW][dR][dA][dM][dI][dR][dL][dH][dA][dK][dR][dL][dR][dK]-OH), the “Minimum inhibitory concentration, C. quillermondiae strain 1” value (C. quillermondiae) is reported as 4, the “Minimum inhibitory concentration, C. parapsilosis strain 1” value (C. parapsilosis; clinical yeast strain 1) is reported as 4 and the “Minimum inhibitory concentration, C. parapsilosis strain 2” value (C. parapsilosis; clinical yeast strain 2) is reported as 4. The “Minimum inhibitory concentration, C. parapsilosis strain 3” value (C. parapsilosis; clinical yeast strain 3) was 4, the “Minimum inhibitory concentration, C. parapsilosis strain 4” value (C. parapsilosis; clinical yeast strain 4) was 2 and the “Minimum inhibitory concentration, C. glabrata strain 1” value (C. glabrata; clinical yeast strain 1) was 8. For the same compound, the “Minimum inhibitory concentration, C. glabrata strain 2” value (C. glabrata; clinical yeast strain 2) was 8, the “Minimum inhibitory concentration, C. glabrata strain 3” value (C. glabrata; clinical yeast strain 3) was 8 and the “Minimum inhibitory concentration, C. glabrata strain 4” value (C. glabrata; clinical yeast strain 4) was 16. The “Minimum inhibitory concentration, Candida albicans strain 1” value (Candida albicans; clinical yeast strain 1) was 8, the “Minimum inhibitory concentration, Candida albicans strain 2” value (Candida albicans; clinical yeast strain 2) was 8 and the “Minimum inhibitory concentration, Candida albicans strain 3” value (Candida albicans; clinical yeast strain 3) was 8. The “Minimum inhibitory concentration, Candida albicans strain 4” value (Candida albicans; clinical yeast strain 4) was 8, the “Minimum inhibitory concentration, Candida albicans strain 5” value (Candida albicans; clinical yeast strain 5) was 8 and the Minimum inhibitory concentration [1] was 8. For the same compound, the Minimum inhibitory concentration ([2]; Acinetobacter baumannii strain 1, Muller Hinton broth-cation adjusted) was 16, the Minimum inhibitory concentration ([2]; Acinetobacter baumannii strain 2, Muller Hinton broth-cation adjusted) was 8 and the Minimum inhibitory concentration ([2]; Acinetobacter baumannii strain 3, Muller Hinton broth-cation adjusted) was 8. The Minimum inhibitory concentration ([2]; Acinetobacter baumannii strain 4, Muller Hinton broth-cation adjusted) was 4, the Minimum inhibitory concentration ([2]; Acinetobacter baumannii strain 5, Muller Hinton broth-cation adjusted) was 8 and the Minimum inhibitory concentration ([3]; Proteus mirabilis strain 1, Muller Hinton broth-cation adjusted) was greater than 128. It also gave a Minimum inhibitory concentration ([3]; Proteus mirabilis strain 2, Muller Hinton broth-cation adjusted) of 32, a Minimum inhibitory concentration ([3]; Proteus mirabilis strain 3, Muller Hinton broth-cation adjusted) of 128 and a Minimum inhibitory concentration ([3]; Proteus mirabilis strain 4, Muller Hinton broth-cation adjusted) greater than 128. It also gave a Minimum inhibitory concentration ([3]; Proteus mirabilis strain 5, Muller Hinton broth-cation adjusted) greater than 128, a Minimum inhibitory concentration ([4]; Pseudomonas aeruginosa strain 1, Muller Hinton broth-cation adjusted) of 4 and a Minimum inhibitory concentration ([4]; Pseudomonas aeruginosa strain 2, Muller Hinton broth-cation adjusted) of 2. For the same compound, the Minimum inhibitory concentration ([4]; Pseudomonas aeruginosa strain 3, Muller Hinton broth-cation adjusted) was 4, the Minimum inhibitory concentration ([4]; Pseudomonas aeruginosa strain 4, Muller Hinton broth-cation adjusted) was 2 and the Minimum inhibitory concentration ([4]; Pseudomonas aeruginosa strain 5, Muller Hinton broth-cation adjusted) was 1. For the same compound, the Minimum inhibitory concentration ([5]; Enterobacter cloacae strain 1, Muller Hinton broth-cation adjusted) was 4, the Minimum inhibitory concentration ([5]; Enterobacter cloacae strain 2, Muller Hinton broth-cation adjusted) was 4 and the Minimum inhibitory concentration ([5]; Enterobacter cloacae strain 3, Muller Hinton broth-cation adjusted) was 8. The Minimum inhibitory concentration ([5]; Enterobacter cloacae strain 4, Muller Hinton broth-cation adjusted) was 4, the Minimum inhibitory concentration ([5]; Enterobacter cloacae strain 5, Muller Hinton broth-cation adjusted) was 2 and the Minimum inhibitory concentration ([6]; Serratia marcescens strain 1, Muller Hinton broth-cation adjusted) was greater than 128. For the same compound, the Minimum inhibitory concentration ([6]; Serratia marcescens strain 2, Muller Hinton broth-cation adjusted) was greater than 128, the Minimum inhibitory concentration ([6]; Serratia marcescens strain 3, Muller Hinton broth-cation adjusted) was greater than 128 and the Minimum inhibitory concentration ([6]; Serratia marcescens strain 4, Muller Hinton broth-cation adjusted) was greater than 128. The Minimum inhibitory concentration ([6]; Serratia marcescens strain 5, Muller Hinton broth-cation adjusted) was 128, the Minimum inhibitory concentration ([7]; Klebsiella pneumoniae strain 1, Muller Hinton broth-cation adjusted) was 8 and the Minimum inhibitory concentration ([7]; Klebsiella pneumoniae strain 2, Muller Hinton broth-cation adjusted) was 4. The Minimum inhibitory concentration ([7]; Klebsiella pneumoniae strain 3, Muller Hinton broth-cation adjusted) was 8, the Minimum inhibitory concentration ([7]; Klebsiella pneumoniae strain 4, Muller Hinton broth-cation adjusted) was 16 and the Minimum inhibitory concentration ([7]; Klebsiella pneumoniae strain 5, Muller Hinton broth-cation adjusted) was 4. For the same compound, the Minimum inhibitory concentration ([8]; Streptococcus pneumoniae strain 1, Muller Hinton broth-cation adjusted) was 4, the Minimum inhibitory concentration ([8]; Streptococcus pneumoniae strain 2, Muller Hinton broth-cation adjusted) was 2 and the Minimum inhibitory concentration ([8]; Streptococcus pneumoniae strain 3, Muller Hinton broth-cation adjusted) was 1. The Minimum inhibitory concentration ([8]; Streptococcus pneumoniae strain 4, Muller Hinton broth-cation adjusted) was 4, the Minimum inhibitory concentration ([8]; Streptococcus pneumoniae strain 5, Muller Hinton broth-cation adjusted) was 1 and the Minimum inhibitory concentration ([9]; Staphylococcus aureus strain 1, Muller Hinton broth-cation adjusted) was 4. For the same compound, the Minimum inhibitory concentration ([9]; Staphylococcus aureus strain 2, Muller Hinton broth-cation adjusted) was 2, the Minimum inhibitory concentration ([9]; Staphylococcus aureus strain 3, Muller Hinton broth-cation adjusted) was 4 and the Minimum inhibitory concentration ([9]; Staphylococcus aureus strain 4, Muller Hinton broth-cation adjusted) was 2. The Minimum inhibitory concentration ([9]; Staphylococcus aureus strain 5, Muller Hinton broth-cation adjusted) was 4, the Minimum inhibitory concentration ([10]; Escherichia coli strain 1) was 4 and the Minimum inhibitory concentration ([10]; Escherichia coli strain 2) was 4. It also gave a Minimum inhibitory concentration ([10]; Escherichia coli strain 3) of 4, a Minimum inhibitory concentration ([10]; Escherichia coli strain 4) of 4 and a Minimum inhibitory concentration ([10]; Escherichia coli strain 5) of 4.
